{"source": "patent US20130065760A1", "about": "“Substituted Pyridines Having Herbicidal Action” (BASF SE, priority 2010, published 2013)", "tested_on": "AMARE", "assay": "greenhouse experiment, post-emergence treatment, herbicidal activity", "format": "in vivo, Amaranthus retroflexus", "settings": "post-emergence method, application rate 0.5 kg/ha, scale from 0 to 100", "source_text": "The seeds of the test plants were sown separately for each species. For the post-emergence treatment, the test plants were first grown to a height of 3 to 15 cm, depending on the plant habit, and only then treated with the active ingredients which had been suspended or emulsified in water. For this purpose, the test plants were either sown directly and grown in the same containers, or they were first grown separately as seedlings and transplanted into the test containers a few days prior to treatment. Depending on the species, the plants were kept at 10-25° C. or 20-35° C. The test period extended over 2 to 4 weeks. During this time, the plants were tended, and their response to the individual treatments was evaluated. Evaluation was carried out using a scale from 0 to 100. 100 means no emergence of the plants, or complete destruction of at least the aerial moieties, and 0 means no damage, or normal course of growth. A good herbicidal activity is given at values of at least 70 and a very good herbicidal activity is given at values of at least 85. The plants used in the greenhouse experiments belonged to the following species: [table]", "data": [{"substance": "3-[5-chloro-3-morpholino-2-(trifluoromethyl)phenyl]-1-(2,2-difluoroethyl)-4-hydroxy-1,5-naphthyridin-2-one [I-3]", "values": [{"measurement": "herbicidal activity against AMARE", "result": "very good (a very good herbicidal activity is given at values of at least 85)"}]}]}
